The record followed here is patent publication US9801955B2, “Methods and compositions for detecting drusen and predicting age-related macular degeneration” (University of Maryland, Baltimore, priority 2012, dated 2017).

Test [1] can be described thus: Staining of HAP spherules in sub-RPE deposits in flat mounts of cadaver tissues (FIG. 7). To be noted: for staining of HAP spherules in sub-RPE deposits: flat mounts of cadaver tissues; for staining pattern in retinal tissue: human cadaveric eyes, FIG. 7. The arrangement: species or system human. On the procedure: The protocol of the study adhered to the tenets of the Declaration for Helsinki regarding research involving human tissue.
(§1) Briefly, the insoluble salts (100 mg in 1 ml 25 mM MOPS pH 7.5 buffer) were stained with 100 ul of 1 mg/ml dye (0.02 nmol/uL of the Bone Tag 680 RD dye) in buffer for 20 minutes at room temperature, followed by two rinses with buffer. Approximately 100 ul of the precipitate (a slurry) was suspended in propylene glycol. Fluorescence emission spectra shown in FIG. 6 were obtained at the excitation wavelengths described in the legend. […] Sub-RPE deposits can be readily identified based on their characteristic faint autofluorescence at excitation: 488 nm and emission: 525 nm).

Test [2] can be described thus: Staining of dibasic calcium phosphate (Example 1). The settings on record: compared with HAP. Format: binding. The source says:
(§2) Hydroxyapatite Bio-Gel HTP resin (Bio-Rad catalog 130-0420) (Bio-Red Laboratories, Inc., Hercules, Calif.) was used as a model for hydroxyapatite in deposits for purposes of collecting emission spectra; stained resin particles were suspended in propylene glycol for fluorescence spectroscopy. Calcium phosphate tribasic (34-40% Ca basis, cat no. C5267), Calcium hydrogen phosphate dihydrate (dibasic, 98%, cat. No. 307653) and calcium phosphate monobasic monohydrate (>85%, cat no. 21053) were all products of Sigma Aldrich and used without further purification. Fluorescence spectra were obtained on a Spectronics AB-2 spectrophotofluorometer with a high pressure xenon lamp.
(§3) The dibasic form of calcium phosphate is listed as 98% pure. […] IRDye 680RD BoneTag was also tested on HAP and drusen. This probe is a long wavelength excitable fluorophore coupled to tetracycline designed as an in vivo bone stain (J. L. Kovar et al., 2011 Anal. Biochem. 416(2):167-173).

Test [3] is described as follows: Staining of insoluble zinc phosphate (Example 1). In kind it is binding.
The nature of test [4]: Fluorescent staining of zinc phosphate, specificity control (Example 2, FIG. 6). The settings on record: 25 mM MOPS pH 7.5. In kind it is binding. As to the method:
as §1

A short description of test [5]: Fluorescent staining of dibasic calcium phosphate, emission spectra (Example 2, FIG. 6). To be noted: 25 mM MOPS pH 7.5. In kind it is binding. As to the method: as §1
A short description of test [6]: Fluorescent staining of authentic hydroxyapatite, emission spectra (Example 2, FIG. 6). Format: binding. The settings on record: for fluorescence of stained hydroxyapatite: 100 mg salt in 25 mM MOPS pH 7.5, 20 minutes at room temperature, suspended in propylene glycol; for specificity for HAP in comparison to dibasic calcium phosphate or zinc phosphate: FIG. 6. On the procedure: as §1

Test [7] can be described thus: Fluorescent staining of cadaver posterior retinas (sub-RPE deposits, drusen). More on the design: species or system human. The settings on record: for increase in apparent intensity over the fluorescent background of the sub-RPE alone: cadaver posterior retinas.
Test [8] in a line: Staining of the elastin layer of the Bruch's membrane in cadaver retina. More on the design: species or system human.
Test [9] is described as follows: Staining of tribasic calcium phosphate. The settings on record: compared with HAP. Format: binding.
Text: as §2, §3

Test [10] can be described thus: Staining of monobasic calcium phosphate. Format: binding. The settings on record: salt slightly soluble.
Text: as §2, §3

A short description of test [11]: Fluorescent staining of HAP chromatographic medium as a model for drusen. In kind it is binding.
Text: as §2, §3

Test [12] can be described thus: Nile Red staining of neutral lipids in unfixed whole mounts with drusen on Bruch's membrane (FIG. 8). The arrangement: species or system human. As to the method:
Flat mounts were stained with 1 mg/ml Alizarin Red S (Sigma-Aldrich; Ex: 532 nm Em:620 nm), 20 μM Bone-Tag 680RD (Li-Cor; Ex: 620 nm Em:680 nm), 1 mg/ml tetracycline (Sigma-Aldrich; Ex: 405 nm Em: 570 nm), and 1 mg/ml Xylenol Orange (Sigma-Aldrich; Ex: 532 nm Em:570 nm) in aqueous buffer for 20 minutes at room temperature. Nile Red (Invitrogen, Carsbad, Calif.; Ex: 532 nm Em: 620 nm) was first dissolved in acetone and then diluted in aqueous buffer to 3.5 mg/ml and tissues were incubated for 20 minutes at room temperature.
Without being bound by theory or mechanism, HAP may form on the surface of an existing structure at the RPE/BM interface, for example lipid droplets or lipoproteins. […] The composition of the inner core of HAP spherules was analyzed by mass spectrometric imaging (FIG. 3). […] The native chemical composition was then analysed with time-of-flight secondary ion mass spectrometry (TOF-SIMS), which is well suited, as it combines high lateral resolution (˜250 nm) and very high sensitivity in the range of parts per million, and can image molecular ions and organic molecules over a wide mass range. […] The m/e 184 ion (i.e. from the phosphocholine headgroup fragment from phospholipids) is readily detected by TOF-SIMS as a characteristic marker, so its absence from the spherules implies a strong predominance of cholesterol and/or cholesteryl esters within the spherules.

Each structure is given as a SMILES string.

`O=C1c2ccccc2C(=O)c2c1cc(S(=O)(=O)O)c(O)c2O` [Alizarin Red S, 9,10-dihydro-3,4-dihydroxy-9,10-dioxo-2-anthracenesulfonic acid]: in test [1], the “staining of HAP spherules in sub-RPE deposits” value is on record as “effectively stained spherules” and the “staining pattern in retinal tissue” value is “very similar staining patterns”. Besides, the “staining of dibasic calcium phosphate” value in test [2] is listed as “less well than HAP”. The “adherence of stain to insoluble zinc phosphate” value in test [3] is on record as “did not appear that either stain was adhered”. Also, in [4], the “staining of zinc phosphate” value is reported as “did not stain significantly”. For the same molecule, the “staining of dibasic calcium phosphate” value in [5] is “did not stain significantly”. For the same molecule, in test [6], the “fluorescence of stained hydroxyapatite” value is “only significant fluorescence from stained specimens is observed with hydroxyapatite” and the “specificity for HAP in comparison to dibasic calcium phosphate or zinc phosphate” value is recorded as “specific for HAP”. Also, the “contrast compared with tetracycline” value in test [7] (cadaver posterior retina, excitation 550-600 nm, emission 650 nm) is “two-fold”. Moreover, the “increase in apparent intensity over the fluorescent background of the sub-RPE alone” value in test [7] is “fifteen-fold”. Moreover, in test [8], the “staining of the elastin layer of the Bruch's membrane” value is given as “No staining”. Moreover, the “staining of tribasic calcium phosphate” value in test [9] is recorded as “less well than HAP”. In [10], the “staining of monobasic calcium phosphate” value was “no staining was evident”. Besides, the “change in fluorescence quantum yield upon binding HAP” value in [11] is recorded as “substantial increase”. Further, the “fluorescent staining of HAP (fluorescence emission when bound)” value in test [11] (HAP chromatographic medium, stained, rinsed in distilled water, suspended in propylene glycol) is recorded as “bright fluorescence emission when bound to the HAP that did not rinse off despite repeated washes with buffer”.
As to `CCN(CC)c1ccc2nc3c4ccccc4c(=O)cc-3oc2c1` [Nile Red], the “labelling of lipid inclusions in drusen” value in test [12] is recorded as “labelled a large number of spherical inclusions”.
Regarding `CN(C)[C@@H]1C(O)=C(C(N)=O)C(=O)[C@@]2(O)C(O)=C3C(=O)c4c(O)cccc4[C@@](C)(O)[C@H]3C[C@@H]12.Cl` [Tetracycline HCl, Tetracycline hydrochloride], the “staining of dibasic calcium phosphate” value in test [2] is “less well than HAP”. For the same molecule, in [7], the “increase in apparent intensity over the fluorescent background of the sub-RPE alone” value is “eight-fold”. In addition, the “staining of tribasic calcium phosphate” value in test [9] is “less well than HAP”.
Turning to `Cc1cc(C2(c3cc(C)c(O)c(CN(CC(=O)O)CC(=O)O)c3)OS(=O)(=O)c3ccccc32)cc(CN(CC(=O)O)CC(=O)O)c1O` [Xylenol Orange], in test [1], the “staining of HAP spherules in sub-RPE deposits” value is “effectively stained spherules” and the “staining pattern in retinal tissue” value was “very similar staining patterns”. For the same molecule, in test [4], the “staining of zinc phosphate” value is “did not stain significantly”. For the same molecule, the “staining of dibasic calcium phosphate” value in test [5] is reported as “did not stain significantly”. In addition, in [6], the “fluorescence of stained hydroxyapatite” value is “only significant fluorescence from stained specimens is observed with hydroxyapatite” and the “specificity for HAP in comparison to dibasic calcium phosphate or zinc phosphate” value is on record as “specific for HAP”.
